Species: Rattus norvegicus
Assay: Open TG-GATES - Regimen: Single
Type: toxicity, organism-based, Sprague-Dawley
Design: regimen Single, gender Male, age 6 weeks
Conditions: in vivo, po, 0 mg/kg, route gavage, dose level Control; for APTT / Bas / Eos / Fbg / Hb / Ht / Lym / MCH / MCHC / MCV / Mono / Neu / PT / Plat / RBC / Ret / WBC: tissue Blood; for KIDNEY_L / KIDNEY_R / KIDNEY_TOTAL: tissue Kidney; for LIVER: tissue Liver; for A/G / ALP / ALT / AST / BUN / CRE / Ca / Cl / DBIL / GLC / IP / K / LDH / Na / PL / RALB / TBIL / TC / TG / TP / gamma-GTP: tissue Plasma

`CCc1oc2ccccc2c1C(=O)c1cc(Br)c(O)c(Br)c1` [BENZBROMARONE] showed a TERMINAL_BW (3 h) of 217.1 g, an APTT (3 h) of 17.3 s and a Bas (3 h) of 0%. The Eos (3 h) was 1%, the Fbg (3 h) was 226.8 mg/dL and the Hb (3 h) was 13.8 g/dL. It also gave a Ht (3 h) of 40.9%, a Lym (3 h) of 76.4% and an MCH (3 h) of 22.2 pg. The MCHC (3 h) was 33.8%, the MCV (3 h) was 65.9 fL and the Mono (3 h) was 7.4%. For the same compound, the Neu (3 h) was 15.2%, the PT (3 h) was 11.9 s and the Plat (3 h) was 104.6 x10_4/uL. For the same compound, the RBC (3 h) was 621.4 x10_4/ul, the Ret (3 h) was 7.9% and the WBC (3 h) was 127.8 x10_2/uL. The KIDNEY_L (3 h) was 0.9 g, the KIDNEY_R (3 h) was 0.9 g and the KIDNEY_TOTAL (3 h) was 1.9 g. For the same compound, the LIVER (3 h) was 10.1 g, the A/G (3 h) was 2 and the ALP (3 h) was 745.6 IU/L. The ALT (3 h) was 38.4 IU/L, the AST (3 h) was 65.4 IU/L and the BUN (3 h) was 12.2 mg/dL. For the same compound, the CRE (3 h) was 0.6 mg/dL, the Ca (3 h) was 10.8 mg/dL and the Cl (3 h) was 104 meq/L. The DBIL (3 h) was 0.046 mg/dL, the GLC (3 h) was 191 mg/dL and the IP (3 h) was 9.7 mg/dL. It also gave a K (3 h) of 4.8 meq/L, an LDH (3 h) of 81.6 IU/L and a Na (3 h) of 138.8 meq/L. The PL (3 h) was 143.6 mg/dL, the RALB (3 h) was 3.8 g/dL and the TBIL (3 h) was 0.3 mg/dL. For the same compound, the TC (3 h) was 75 mg/dL, the TG (3 h) was 84.2 mg/dL and the TP (3 h) was 5.7 g/dL. It also gave a gamma-GTP (3 h) of 1.8 IU/L, a TERMINAL_BW (6 h) of 212.5 g and an APTT (6 h) of 16 s. For the same compound, the Bas (6 h) was 0%, the Eos (6 h) was 1% and the Fbg (6 h) was 230.2 mg/dL. The Hb (6 h) was 14.1 g/dL, the Ht (6 h) was 41.9% and the Lym (6 h) was 79.8%. For the same compound, the MCH (6 h) was 21.8 pg, the MCHC (6 h) was 33.6% and the MCV (6 h) was 65 fL. It also gave a Mono (6 h) of 6.2%, a Neu (6 h) of 13.6% and a PT (6 h) of 12.2 s. For the same compound, the Plat (6 h) was 103.2 x10_4/uL, the RBC (6 h) was 645.6 x10_4/ul and the Ret (6 h) was 7.9%. The WBC (6 h) was 125.2 x10_2/uL, the KIDNEY_L (6 h) was 1 g and the KIDNEY_R (6 h) was 1 g. It also gave a KIDNEY_TOTAL (6 h) of 2.1 g, an LIVER (6 h) of 9.9 g and an A/G (6 h) of 2. It also gave an ALP (6 h) of 690.6 IU/L, an ALT (6 h) of 28.2 IU/L and an AST (6 h) of 57.4 IU/L. For the same compound, the BUN (6 h) was 10.6 mg/dL, the CRE (6 h) was 0.5 mg/dL and the Ca (6 h) was 10.5 mg/dL. The Cl (6 h) was 104.6 meq/L, the DBIL (6 h) was 0.006 mg/dL and the GLC (6 h) was 182.6 mg/dL. The IP (6 h) was 9.7 mg/dL, the K (6 h) was 5.2 meq/L and the LDH (6 h) was 82.8 IU/L. The Na (6 h) was 138.4 meq/L, the PL (6 h) was 142.2 mg/dL and the RALB (6 h) was 3.8 g/dL. For the same compound, the TBIL (6 h) was 0.4 mg/dL, the TC (6 h) was 72.4 mg/dL and the TG (6 h) was 69.2 mg/dL. For the same compound, the TP (6 h) was 5.7 g/dL, the gamma-GTP (6 h) was 1.2 IU/L and the TERMINAL_BW (9 h) was 208.2 g. The APTT (9 h) was 16.2 s, the Bas (9 h) was 0% and the Eos (9 h) was 0.8%. It also gave a Fbg (9 h) of 234.8 mg/dL, a Hb (9 h) of 13.6 g/dL and a Ht (9 h) of 40.6%. It also gave a Lym (9 h) of 74.6%, an MCH (9 h) of 21.6 pg and an MCHC (9 h) of 33.5%. For the same compound, the MCV (9 h) was 64.4 fL, the Mono (9 h) was 5.2% and the Neu (9 h) was 19.6%. It also gave a PT (9 h) of 12.2 s, a Plat (9 h) of 105.2 x10_4/uL and an RBC (9 h) of 631 x10_4/ul. It also gave a Ret (9 h) of 7.4%, a WBC (9 h) of 95.5 x10_2/uL and a KIDNEY_L (9 h) of 1 g. For the same compound, the KIDNEY_R (9 h) was 1 g, the KIDNEY_TOTAL (9 h) was 2 g and the LIVER (9 h) was 9.1 g. It also gave an A/G (9 h) of 1.9, an ALP (9 h) of 623.4 IU/L and an ALT (9 h) of 27 IU/L. It also gave an AST (9 h) of 58.8 IU/L, a BUN (9 h) of 11.2 mg/dL and a CRE (9 h) of 0.6 mg/dL. The Ca (9 h) was 10 mg/dL, the Cl (9 h) was 105.2 meq/L and the DBIL (9 h) was 0.008 mg/dL. For the same compound, the GLC (9 h) was 181.2 mg/dL, the IP (9 h) was 11 mg/dL and the K (9 h) was 5 meq/L. For the same compound, the LDH (9 h) was 86.8 IU/L, the Na (9 h) was 139.4 meq/L and the PL (9 h) was 126.4 mg/dL. The RALB (9 h) was 3.8 g/dL, the TBIL (9 h) was 0.3 mg/dL and the TC (9 h) was 71.6 mg/dL. For the same compound, the TG (9 h) was 42.8 mg/dL, the TP (9 h) was 5.8 g/dL and the gamma-GTP (9 h) was 1.2 IU/L. The TERMINAL_BW (24 h) was 225.6 g, the APTT (24 h) was 15.9 s and the Bas (24 h) was 0%. For the same compound, the Eos (24 h) was 1.2%, the Fbg (24 h) was 220.2 mg/dL and the Hb (24 h) was 13.9 g/dL. The Ht (24 h) was 41.4%, the Lym (24 h) was 75% and the MCH (24 h) was 21.4 pg. The MCHC (24 h) was 33.5%, the MCV (24 h) was 63.7 fL and the Mono (24 h) was 6.4%. For the same compound, the Neu (24 h) was 17.4%, the PT (24 h) was 11.9 s and the Plat (24 h) was 115 x10_4/uL. The RBC (24 h) was 650 x10_4/ul, the Ret (24 h) was 7.2% and the WBC (24 h) was 109 x10_2/uL. It also gave a KIDNEY_L (24 h) of 1 g, a KIDNEY_R (24 h) of 1 g and a KIDNEY_TOTAL (24 h) of 2 g. It also gave an LIVER (24 h) of 10.9 g, an A/G (24 h) of 2.1 and an ALP (24 h) of 682.4 IU/L. It also gave an ALT (24 h) of 32.2 IU/L, an AST (24 h) of 61 IU/L and a BUN (24 h) of 16.8 mg/dL. For the same compound, the CRE (24 h) was 0.6 mg/dL, the Ca (24 h) was 10.4 mg/dL and the Cl (24 h) was 104.6 meq/L. For the same compound, the DBIL (24 h) was 0.006 mg/dL, the GLC (24 h) was 188.8 mg/dL and the IP (24 h) was 7.8 mg/dL. The K (24 h) was 5.3 meq/L, the LDH (24 h) was 91.6 IU/L and the Na (24 h) was 138.8 meq/L. It also gave a PL (24 h) of 149.4 mg/dL, an RALB (24 h) of 4 g/dL and a TBIL (24 h) of 0.3 mg/dL. It also gave a TC (24 h) of 81 mg/dL, a TG (24 h) of 100.2 mg/dL and a TP (24 h) of 5.9 g/dL. The gamma-GTP (24 h) was 1 IU/L.
